The source of these data is patent US9387235B2, “Cosmetic preparations containing PTH fragments” (BASF Beauty Care Solutions France S.A.S., priority 2004, dated 2016).

No end group written: not given here.

Assay [1] concerns human dermal fibroblast. Kind of assay: Human dermal fibroblast mRNA profile on cDNA-array (Panhuman 10K). Type of assay: cell-based. As to conditions: for Expression evolution / Log2 (treated/non-treated): 5 μg/ml. How it is done: The aim of this study is to detect the variation of mRNA profile of human dermal fibroblast induced by treatment with the PTH(29-32) peptide fragment.
Normal human dermal fibroblast were cultured in standard medium supplemented with foetal calf serum (FCS) during three days in a 5% CO2 atmosphere. After cultures, the medium was changed by a standard medium either supplemented with PTH(29-32) peptide fragment at 5 μg/ml or not. After an incubation of either 3 or 24 hours, cultures were arrested and total RNAs of the different cultures were extracted. The cDNAs obtained from peptide-treated RNAs or from non-treated RNAs were labelled with cyanine-3 and cyanine-5, respectively.
Mixture of treated and non-treated cDNAs were hybridised on commercially Panhuman® 10K (MW Biotech, Roissy Charles-de-Gaulle, France) cDNA-array allowing to study near to 10,000 gene expressions. After highly stringent washing, cyanine-3 and cyanine-5 fluorescences were measured, allowing to evaluate a […] expression ratio of each analyzed gene.
Results are expressed as Log2 of the ratio between the measured expression of genes in the treated vs non-treated conditions.

The subject of assay [2] is human dermis fibroblasts. Nature of the assay: Effects on the growth of human dermis fibroblasts (DNA cell content, Hoechst 33258). The class given is cell-based. As to conditions: for DNA after culture for 3 days / DNA after culture for 6 days: % relative to control medium, mean of four tests in triplicate. How it is done:
The object of this test is to examine the regenerating and revitalising activities of cultures of human dermis fibroblasts in vitro.
Human dermis fibroblasts were incubated in a standard medium for cell cultures with foetal calf serum (FCS). After culture for one day at 37° C. and with a 5% content of CO2, the medium was changed for a standard medium with different concentrations of peptides. After further incubation for three days and six days, the number of living cells was established by establishing the DNA cell content with a fluorescent probe (Hoechst 33258).

Assay [3] has as its system protein kinase C (PKC). As to conditions: osteosarcoma cells of ROS 17/2 rats; Jouishomme et al. 1992, 1994; cited from earlier work.
Assay [4] relates to lumican. Kind of assay: Stimulation of the synthesis of lumican on aged human dermal fibroblasts (immunocytochemistry, image analysis). Type of assay: cell-based. As to conditions: aged human dermal fibroblasts in culture. As to the method:
Human dermal fibroblasts cell suspension were prepared by standard digestion by collagenase of human adult dermis specimens collected from plastic surgery.
After repeated passages (Hayflick model) to mimic ageing in vitro, human dermal fibroblasts were seeded in DMEM for 2 days at 37° C., CO2=5%. Then, acetyl-QDVH (1 and 3 μg/ml) is introduced and after 6 days of incubation at 37° C., CO2=5%, the expression of the lumican synthesis was evaluated on glass slides by immunocytochemistry.
Quantification of the staining was carried out by image analysis.
The results are expressed as the sum of the product of number of pixels by green detected values (arbitrary unit).

Assay [5] relates to collagen type I. Nature of the assay: Collagen type I gene expression in human dermal fibroblasts (quantitative RT-PCR). The class given is cell-based. As to conditions: for Ratio versus calibrator (collagen type I mRNA): incubation for 1 day, EF1α reference gene; for rate of collagen type I gene expression (in words): human dermal fibroblasts. As to the method:
Human dermal fibroblasts are seeded and incubated for 3 to 5 days at 37° C., CO2=5%.
After exchange of cell culture medium to a defined cell culture medium with the products to be tested, incubation for 1 day at 37° C., CO2=5%. The recovering of cells and numeration before recovering of RNA from human dermal fibroblasts cultured in vitro.
The level of mRNA encoding the collagen type I was evaluated by quantitative RT-PCR or real time RT-PCR.
The results are firstly expressed by the crossing point (CP) which refers to the number of cycle required for the rising of a distinct fluorescence. Then the results of each sample, are calculated as a ratio referring to a reference gene or “house keeping” gene: CP of target/CP of reference gene. EF1α gene was used as internal control gene to normalise the mRNA evaluation.

Where [6] appears, read: col1a1, alpha 1 type i collagen, 3 h incubation.
The mark [7] stands for this setting: cspg2, chondroitin sulfate 2 (versican), 3 h incubation.
[8] abbreviates: cspg2, chondroitin sulfate 2 (versican), 24 h incubation.
[9] abbreviates: ctgf, connective tissue growth factor, 3 h incubation.
[10] abbreviates: ctgf, connective tissue growth factor, 24 h incubation.
Setting [11] is: fgf2, fibroblast growth factor 2, 3 h incubation.
[12] abbreviates: gpc1, glypican 1 precursor, 3 h incubation.
Setting [13] is: gpc1, glypican 1 precursor, 24 h incubation.
[14] abbreviates: itga2b, integrin alpha 2b, 3 h incubation.
[15] abbreviates: itgb4, integrin, beta 4, 24 h incubation.
[16] abbreviates: itgb5, integrin, beta 5, 3 h incubation.
Where [17] appears, read: itgb5, integrin, beta 5, 24 h incubation.
Setting [18] is: nid, nidogen (enactin), 3 h incubation.
Where [19] appears, read: nid, nidogen (enactin), 24 h incubation.
The mark [20] stands for this setting: tgfbr3, transforming growth factor, beta receptor III (betaglycan), 3 h incubation.
Setting [21] is: tgfbr3, transforming growth factor, beta receptor III (betaglycan), 24 h incubation.
[22] abbreviates: thbs1, thrombospondin 1, 24 h incubation.
The mark [23] stands for this setting: timp1, tissue inhibitor of metalloproteinase 1, 3 h incubation.

With “Gln-Asp-Val-His (QDVH; Fragment of a parathyroid hormone)”, the Expression evolution entry in assay [1] (bgn, biglycan, 3 h incubation) is reported as “increase”; in assay [1] (bgn, biglycan, 24 h incubation) it was “increase”; in assay [1] (setting [6]), “increase”; in assay [1] (setting [7]), “increase”; in assay [1] (setting [8]), “increase”; in assay [1] (setting [9]), “increase”. Also, the Expression evolution result in assay [1] (setting [10]) is recorded as “increase”; in assay [1] (setting [11]), “increase”; in assay [1] (setting [12]), “no variation”; in assay [1] (setting [13]) it was “increase”; in assay [1] (setting [14]) it was “increase”; in assay [1] (setting [15]), “increase”. Also, the Expression evolution result in assay [1] (setting [16]) is on record as “no variation”; in assay [1] (setting [17]) it was “increase”; in assay [1] (setting [18]), “increase”; in assay [1] (setting [19]) it was “increase”; in assay [1] (setting [20]), “increase”; in assay [1] (setting [21]), “increase”. The Expression evolution result in assay [1] (setting [22]) and in assay [1] (setting [23]) was “increase” in each case. Besides, the “Log2 (treated/non-treated)” value in assay [1] (bgn, biglycan, 3 h incubation) came out at 2.16; in assay [1] (bgn, biglycan, 24 h incubation), 0.66; in assay [1] (setting [6]), 0.93; in assay [1] (setting [7]), 1.32; in assay [1] (setting [8]) it was 1.20; in assay [1] (setting [9]), 0.77. Also, the “Log2 (treated/non-treated)” value in assay [1] (setting [10]) is reported as 0.74; in assay [1] (setting [11]) it was 0.86; in assay [1] (setting [12]) it was −0.17; in assay [1] (setting [13]) it was 0.73; in assay [1] (setting [14]), 0.50; in assay [1] (itga2b, integrin alpha 2b, 24 h incubation) it was 0.15. Further, the “Log2 (treated/non-treated)” value was determined as 1.15 in assay [1] (setting [15]); 0.05 in assay [1] (setting [16]); 0.68 in assay [1] (setting [17]); 1.76 in assay [1] (setting [18]); 0.58 in assay [1] (setting [19]); 2.00 in assay [1] (setting [20]). Further, the “Log2 (treated/non-treated)” value in assay [1] (setting [21]) is on record as 1.54; in assay [1] (setting [22]), 1.52; in assay [1] (setting [23]), 0.15; in assay [1] (timp1, tissue inhibitor of metalloproteinase 1, 24 h incubation), −0.25. Moreover, the “expression of fibroblast genes (in words)” value in assay [1] (growth factors, extra-cellular matrix components, DEJ components) is on record as “stimulates the expression of some genes”. For the same substance, in assay [2] (fibroblasts cultivated from biopsies of healthy adult subjects), the “growth of human dermis fibroblasts (in words)” value is recorded as “stimulates the growth of human dermis fibroblasts”. Besides, the entries for the “DNA after culture for 3 days” value in assay [2] (peptide 0.001 %) and in assay [2] (peptide 0.003 %) were 162% and 155%, respectively. The figures for the “DNA after culture for 6 days” value in assay [2] (peptide 0.001 %) and in assay [2] (peptide 0.003 %) were 119% and 115%, respectively. In addition, in assay [2] (without any change in the cell culture medium), the “persistence of growth-stimulating activity (in words)” value is listed as “still detectable after 6 days”. Moreover, the “activation of protein kinase C (in words)” value in assay [3] is recorded as “minimum domain of PTH in a position to function fully in the activation of PKC”.
As to “IL-4: IL4 (positive control) obtained from SIGMA [reference compound]”, in assay [4], the “lumican expression (in words)” value is “increase of lumican expression”.
On to “Leu-Gln-Asp-Val-His-Asn-Phe (LQDVHNF; Fragment of a parathyroid hormone) [PTH region (28 to 34)]”, for which the “activation of protein kinase C (in words)” value in assay [3] was “stimulator of the protein kinase C (PKC)”.
Regarding TGFβ [reference compound], the “Ratio versus calibrator (collagen type I mRNA)” value in assay [5] (10 ng/ml) worked out at 2.12. The “rate of collagen type I gene expression (in words)” value in assay [5] is on record as “strongly enhanced”.
As for “acetyl-Gln-Asp-Val-His (Ac-QDVH) [Acetyl-QDVH, acetylated PTH (29-32) peptide fragment]”, the “lumican expression (in words)” value in assay [4] (listed as acetyl-Gln-Asp-Val-His) is recorded as “increase of lumican expression”; in assay [4] (listed as acetyl-QDVH) it was “significantly stimulated the expression of lumican with a dose-dependent effect”. Also, the results for the “Ratio versus calibrator (collagen type I mRNA)” value in assay [5] (3 μg/ml) and in assay [5] (10 μg/ml) were 1.05 and 1.18, respectively. Also, in assay [5], the “rate of collagen type I gene expression (in words)” value was “significantly enhanced”.
